As a reminder, the IC50 is the point on the concentration scale where inhibition reaches its midpoint.

The text below walks through data of paper PMC3705751 (Evidence-based Complementary and Alternative Medicine : eCAM, 2013).

The target of data set [1] is NA of PR8 H1N1 influenza A virus (Influenza A virus, UniProt P03468). The data set can be described thus: NA enzymatic activity inhibition, fluorometric MUNANA assay. It is filed as biochemical, Influenza A/Puerto Rico/8/34 (H1N1). The text has this: Pandemic influenza A/Taiwan/CMUH/2009 (H1N1) (pandemic 2009 H1N1 virus), seasonal influenza A/Taiwan//CMUH/2007 (H1N1), 2009 (H1N1), and 2009 (H3N2) (seasonal 2007 H1N1, 2009 H1N1, and 2009 H3N2 influenza A viruses) were isolated in the clinical virology laboratory of China Medical University Hospital, Taiwan. Influenza A/Puerto Rico/8/34 (H1N1) (PR8 H1N1 virus) was kindly provided by Dr. Wei-Li Hsu (Institute of Microbiology and Public Health, National Chung-Hsing University). HA subtype of all influenza A viruses used was confirmed by RT-PCR or real-time RT-PCR with specific primers (see Supplementary Table 1 in the Supplementary Material available online at http://dx.doi.org/10.1155/2013/750803).
Chain of NA of PR8 H1N1 influenza A virus (P03468 whole entry): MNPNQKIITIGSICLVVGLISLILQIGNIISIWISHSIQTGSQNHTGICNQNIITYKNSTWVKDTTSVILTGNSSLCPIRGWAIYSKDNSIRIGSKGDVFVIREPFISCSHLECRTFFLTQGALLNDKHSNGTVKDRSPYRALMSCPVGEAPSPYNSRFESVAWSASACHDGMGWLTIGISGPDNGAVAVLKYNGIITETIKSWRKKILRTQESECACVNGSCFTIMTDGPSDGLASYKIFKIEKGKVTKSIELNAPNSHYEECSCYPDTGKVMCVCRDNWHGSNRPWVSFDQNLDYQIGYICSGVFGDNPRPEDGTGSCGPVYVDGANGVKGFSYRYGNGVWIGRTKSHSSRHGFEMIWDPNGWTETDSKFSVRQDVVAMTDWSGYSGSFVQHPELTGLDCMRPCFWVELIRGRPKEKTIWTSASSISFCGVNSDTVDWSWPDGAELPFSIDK
Fluorometric substrate 2′-(4-methylumbelliferyl)-α-D-N-acetylneuraminic acid (MUNANA; Sigma) was used to determine NA activity as described in a prior report. To determine NA activity of pandemic 2009 H1N1 and seasonal 2007 H1N1 viruses, serial 10-fold dilution of viruses (10^6 PFU/mL) was added to the wells of a 96-well plate, mixed with MUNANA solution at final concentration of 300 μM, and then incubated for 1 h at 37°C. Relative NA enzymatic activity was determined as the fluorescent intensity at a 360 nm excitation and a 460 nm emission wavelength (Multidetection Fluorescence-Luminescence Microplate Reader). […] Concentration of each extract or flavonoid showing 50% inhibitory effect (IC50) compared to the control with no inhibitor was determined by computer program (provided by John Spouge, National Institutes of Health).

Data set [2] relates to seasonal 2007 H1N1 influenza A virus. The data set can be described thus: microbe, parasite or virus in culture. The note with it: read-out: Plaque inhibition IC50 values, Seasonal 2007 H1N1. It is filed as cell-based.
For data set [3], the system named is pandemic 2009 H1N1 influenza A virus. Nature of the data set: Plaque inhibition assay in MDCK cells. It is filed as cell-based, Pandemic influenza A/Taiwan/CMUH/2009 (H1N1). Particulars: 72 h, read-out: Plaque inhibition IC50 values, Pandemic 2009 H1N1.
Another data set is described as follows: Cytotoxic assay (MTT). The note with it: dog, MDCK cells.
Another data set is described as follows: in vitro. The note with it: dog.
Setting [4] is: flavonoids, MUNANA substrate, read-out: NA inhibition IC50 values, PR8 H1N1.

Like-named read-outs stand apart in the source and are kept apart here.

Turning to `O=c1cc(-c2ccc(O)cc2)oc2cc(O)cc(O)c12` [Apigenin], the IC50 in data set [1] was found to be 81.3 µM; in data set [2] (flavonoids, MDCK cells, 3 days) it was 119.61 ± 0.032 µM; in data set [3], 94.16 ± 0.047 µM. The compound further registered a CC50 at 48 h in “Cytotoxic assay (MTT)” of 218.34 ± 0.11 µM.
For `O=c1cc(-c2ccccc2)oc2cc(O)c(O)c(O)c12` [Baicalein], the IC50 came to 0.181 µM in data set [1]; 0.018 µM in data set [2] (Influenza A virus, MDCK, 72 h); 0.02 µM in data set [3]. The compound also displayed a CC50 at 48 h in “Cytotoxic assay (MTT)” of 0.045 ± 0.088 µM.
`O=C(O)[C@H]1O[C@@H](Oc2cc3oc(-c4ccccc4)cc(=O)c3c(O)c2O)[C@H](O)[C@@H](O)[C@@H]1O` [Baicalin]: the concentration for half-maximal inhibition (IC50) in data set [1] (setting [4]) was 2.75 µM; in data set [2] (Influenza A virus, MDCK, 72 h), greater than 0.01 µM; in data set [3], greater than 0.01 µM. In the data set “in vitro”, the CC50 came out at 0.015 µM.
For the compound `O=c1cc(-c2ccccc2)oc2cc(O)cc(O)c12` [Chrysin], the IC50 in data set [1] (setting [4]) is 132 µM; in data set [2] (Influenza A virus, MDCK, 72 h), greater than 200 µM; in data set [3], greater than 200 µM. The CC50 in “in vitro” is 266.66 ± 0.077 µM.
Turning to Chloroform, the “CC50 MDCK cells” value in the data set on MDCK cells was 829.77 ± 0.009 µg/mL.
Same read-out and setting: to MeOH belongs 923.12 ± 0.017 µg/mL.
